Experimental data: US20030039689A1, “Polymer-based, sustained release drug delivery system” (priority 2001, published 2003)

Key:
[1] = Release from TC-32 coated stents, non-implanted and explanted from swine, into phosphate buffer; type: physicochemical, common swine; conditions: stents harvested on study day 5 from swine LAD and non-implanted stents; 0.1 M phosphate buffer
Protocol: Polyurethane (1.008 gm) was added to 50.0 gm of tetrahydrofuran (THF). The mixture was stirred overnight to dissolve the polymer. 5.0 gm of the polymer solution was diluted with 10.0 gm of THF. 150.2 mg of a co-drug of 5-fluorouracil (5FU) and triamcinolone acetonide (TA) (the co-drug being defined as “TC-32”) was added to the polymer solution and dissolved. The coating solution was prepared with 60% codrug loading. A 13% codrug loaded coating solution was also prepared. Bare stents (Tetra, Guidant, Lot# 1092154, 13 mm Tetra) were washed with isopropanol, air-dried, and spray coated with the coating solution using a precision airbrush. The coating was repeated until approximately 1.0 mg of total coating had been applied to each stent. The coated stents were vacuum dried for two hours at 50° C. to remove solvent residue, then subjected to plasma treatment and gamma-irradiation.
Co-drug coated stents were test in two groups. […] Samples were taken periodically and the concentration of co-drug in the buffer was tested by HPLC. The entire release media was replaced after each sample.
Group Two stents were placed in vivo. Three common swine had TC-32 coated stents implanted into the left anterior descending (LAD) coronary artery on study day 1. […] The amount of each drug released into the media was determined by HPLC.

[2] = Effect of gamma irradiation and plasma treatment on drug release from coated stents; type: physicochemical; conditions: stents with or without plasma treatment and gamma-irradiation; 0.1 M phosphate buffer pH 7.4
Protocol: FIGS. 11A and 11B are graphs showing the effect of gamma irradiation and plasma treatment on drug release. […] Samples were taken periodically and the entire release media was replaced after each sample. The amount of each drug released into the media was determined by HPLC.

[3] = Release test from Chronoflex polymer/TC-32 coated HPLC inserts into phosphate buffer; type: physicochemical
Protocol: A mixture of 3.3 gm Chronoflex C(65D) (Lot# CTB-G25B-1234) dispersion containing 0.3 gm of Chronoflex C(65D) and 2.2 gm Chronoflex C(55D) (Lot# CTB-121B-1265) dispersion containing 0.2 gm of Chronoflex C (55D), both in dimethyl acetamide (DMAC) (1:10, w/w) was prepared by mixing the two dispersions together. To this mixture, 6.0 gm of tetrahydrofurane (HPLC grade) were added and mixed. The final mixture was not a clear solution. Then 101.5 mg of a co-drug of 5-fluorouracil (5FU) and triamcinolone acetonide (TA) (the co-drug being defmed as “TC-32”) was added and dissolved into the polymer solution.
Ten (10) HPLC inserts were then coated with the polymer/TC-32 solution by dipping, which was then followed by air-drying under ambient temperature. The coating and air-drying process was repeated four (4) times (5 times total) until a total of about 10 mg of polymer/TC-32 was applied to each insert. The inserts were then placed in an oven at 80° C. for two hour to remove the residue of the solvent.

[4] = Release test from Chronoflex polymer/TC-32 dip-coated stents into phosphate buffer; type: physicochemical; conditions: phosphate buffer pH 7.4, 37° C., HPLC
Protocol: To 5.0 gm of stirred dimethyl acetamide (DMAC), 300 mg of Chronoflex C(65D) (Lot# CTB-G25B-1234) and 200 mg of Chronoflex C(55D) (Lot# CTB-121B-1265) were added. The polymer was slowly dissolved in DMAC (about 4 hours). Then 5.0 gm of THF was added to the polymer dispersion. The mixture was not a clear solution. Then 100.9 mg of TC-32 was added and dissolved in the mixture.
Three (3) Stents, supplied by Guidant Corp, were coated then with the polymer/TC-32 solution by dipping and followed by air-drying under ambient temperature. The coating and air-drying process was repeated a few times till a total of about 2.0 mg of polymer/TC-32 were applied to each stent. The coated stents were air-dried under ambient temperature in a biological safety cabinet over night. The stents were then vacuum dried at 80° C. for two hour to remove the residue of the solvent. […] Samples were taken daily, and the entire media was replaced with a fresh one at each sampling time.

[5] = Release test from silicone coated glass plates into phosphate buffer, HPLC
Text: Samples were taken daily, and the entire release media was replaced with fresh media at each sampling time. […] Again, the data represent both intact and constituents of the inventive compound.

[6] = Release test from PVA coated glass plates into phosphate buffer, HPLC; type: physicochemical; conditions: 0.1 M phosphate buffer pH 7.4, 37° C., intact compound plus constituents

Row | SMILES | intact codrug in release media [1] | intact codrug in release media [2] | half-life in buffer ([3]; 0.1 m phosphate buffer, pH 7.4, 37° C.) | intact codrug in the release media ([3]; coated HPLC inserts, phosphate buffer pH 7.4, 37° C., HPLC) | intact codrug in the release media [4] | release rate (slope of total cumulative release curve) ([5]; silicone coated glass plates, 0.1 M phosphate buffer pH 7.4, 37° C., intact compound plus constituents) [µg/day] | naproxen detected in release media ([5]; silicone coated glass plates, up to day 6, phosphate buffer pH 7.4, 37° C.) [mg] | TC-112 detected in buffer ([5]; silicone coating, up to day 6) [mg] | TC-112 hydrolyzed (calculated from naproxen detected) ([5]; silicone coating, up to day 6) [mg] | total TC-112 released (detected plus hydrolyzed) ([5]; silicone coating, up to day 6) [mg] | release rate (slope of total cumulative release curve) [6] [µg/day]
1 | CC1(C)O[C@@H]2CC3C4CCC5=CC(=O)C=CC5(C)[C@@]4(F)[C@@H](O)CC3(C)[C@]2(C(=O)COC(=O)OCn2cc(F)c(=O)[nH]c2=O)O1 (some centres unmarked) [TC-32] | not detectable | not detectable | short | no TC-32 was detectable | No TC-32 was detectable | – | – | – | – | – | –
2 | COc1ccc2cc(C(C)C(=O)OCn3cc(F)c(=O)[nH]c3=O)ccc2c1 (centres unmarked) [TC-112] | – | – | – | – | – | 13.3 | 43.9 | 51.4 | 71.0 | 122.4 | 10
